The source of these data is article PMC2703642, “PpoR is a conserved unpaired LuxR solo of Pseudomonas putida which binds N-acyl homoserine lactones” (BMC Microbiology, 2009).

The target in the experiment is T1, PpoR (Pseudomonas putida, UniProt Q88E21).
T1 construct: gene PP_4647; full-length, 235 aa [sic] (705 bp ORF); 721-bp fragment with entire ppoR cloned SphI-HindIII in pQE30 (pQEPpoR); expressed in E. coli M15(pRep4); not purified
T1 sequence (Q88E21 entry or part of it): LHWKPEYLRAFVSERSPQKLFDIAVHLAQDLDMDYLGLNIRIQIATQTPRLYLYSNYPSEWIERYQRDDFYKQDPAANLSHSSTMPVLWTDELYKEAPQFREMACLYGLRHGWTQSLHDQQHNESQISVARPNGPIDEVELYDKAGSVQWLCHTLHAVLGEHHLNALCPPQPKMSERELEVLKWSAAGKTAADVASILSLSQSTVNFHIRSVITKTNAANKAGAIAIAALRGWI
Kind of experiment: AHL retention in washed E. coli cells expressing PpoR, ethyl acetate extraction, TLC with A. tumefaciens NTL4 (pZLR4) overlay. The note with it: 1 uM AHL in LB, 30 C, IPTG induction 3.5 h; pQE30 vector-only control. It counts as cell-based.
Turning to `CCCCCCCC(=O)CC(=O)N[C@H]1CCOC1=O` [3-oxo-C10-HSL], the “AHL retention in washed E. coli cells expressing PpoR, ethyl acetate extraction,” value was “PpoR also exhibited probable binding to 3-oxo-C8-HSL and 3-oxo-C10-HSL, but to a lower extent”.
Consider `CCCC(=O)CC(=O)N[C@H]1CCOC1=O` [3-oxo-C6-HSL], for which the “AHL retention in washed E. coli cells expressing PpoR, ethyl acetate extraction,” value is listed as “Purification of AHLs from E. coli over-expressing PpoR resulted in detection of 3-oxo-C6-HSL”.
The result for `CCCCCC(=O)CC(=O)N[C@H]1CCOC1=O` [3-oxo-C8-HSL] reads “PpoR also exhibited probable binding to 3-oxo-C8-HSL and 3-oxo-C10-HSL, but to a lower extent”.
